From BindingDB's records for doi:10.1021/jm900078f (Metabasis Therapeutics, 2009)
pIC50: −log10 of the molar value.

Target: T1, Fructose-1,6-bisphosphatase 1 (Homo sapiens, UniProt P09467)
T1 sequence (P09467 whole entry): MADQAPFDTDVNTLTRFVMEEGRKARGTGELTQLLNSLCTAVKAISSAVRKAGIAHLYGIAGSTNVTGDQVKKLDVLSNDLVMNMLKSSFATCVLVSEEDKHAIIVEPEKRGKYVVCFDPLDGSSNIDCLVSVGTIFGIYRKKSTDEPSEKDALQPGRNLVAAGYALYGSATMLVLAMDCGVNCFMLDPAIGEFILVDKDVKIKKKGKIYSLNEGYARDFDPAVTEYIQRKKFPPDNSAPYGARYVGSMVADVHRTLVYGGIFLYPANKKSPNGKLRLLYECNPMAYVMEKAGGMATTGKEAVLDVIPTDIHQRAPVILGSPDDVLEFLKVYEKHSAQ
Assay: Inhibition of human liver FBPase expressed in Escherichia coli by spectrophotometry

pIC50: 5.85
Compound: Nc1ncnc2c1nc(-c1ccc(P(=O)(O)O)o1)n2CCC1CCCCC1 [5-(6-amino-9-(2-cyclohexylethyl)-9H-purin-8-yl)furan-2-ylphosphonic acid]
